Data as given in ChEMBL document CHEMBL6178014, “Discovery and Administration Optimization of Novel Selective CDK9 Inhibitor, 1-7a-B1, for Improved Pharmacokinetics and Antitumor Efficacy In Vivo” (J Med Chem, 2025).
Calls of active or inactive are those of the source. No cut-off for these calls is given here.

Columns and labels:
HCT-116 [1] = test: Upregulation of Bax expression in human HCT-116 cells at 100 to 400 nM incubated for 48 hrs by Western blot analysis; type: functional, cell-based; settings: dose 100-400 nM
[2] = AUC (0 to t) in Sprague-Dawley rat at 2 mg/kg, iv measured after 24 hrs by LC-MS/MS analysis; type: ADME, organism-based; settings: in vivo
[3] = AUC (0 to infinity) in Sprague-Dawley rat at 2 mg/kg, iv measured after 24 hrs by LC-MS/MS analysis; type: ADME, organism-based; settings: in vivo
HCT-116 [4] = test: Antitumor activity against human HCT-116 cells xenografted in female BALB/c nu-nu mouse assessed as downregulation of Mcl-1 mRNA expression at 40 mg/kg, po incubated for 48 hrs by qRT-PCR analysis; type: functional, organism-based
[5] = Plasma protein binding in human at 100 uM measured up to 120 mins by LC-MS/MS analysis relative to control; type: ADME, cell-free; settings: read-out: PPB (converted)
[6] = Volume of distribution in Sprague-Dawley rat at 2 mg/kg, iv measured after 24 hrs by LC-MS/MS analysis; type: ADME, organism-based; settings: in vivo
[7] = Toxicity in female BALB/c nu-nu mouse xenografted with human HCT-116 cells assessed as histopathological changes in heart at 20 mg/kg, po as submicron emulsion administered once daily for 3 weeks by H and E staining based analysis; type: organism-based; settings: in vivo, 504 h
CDK1/Cyclin A = CDK1/Cyclin A (Homo sapiens, UniProt P06493); test: Inhibition of CDK1/cyclA2 (unknown origin) by ADP-Glo assay; type: protein-complex assay
[8] = Tmax in Sprague-Dawley rat at 30 mg/kg, po as submicron emulsion measured after 24 hrs by LC-MS/MS analysis; type: ADME, organism-based; settings: in vivo
[9] = AUC (0 to t) in Sprague-Dawley rat at 30 mg/kg, po as submicron emulsion measured after 24 hrs by LC-MS/MS analysis; type: ADME, organism-based; settings: in vivo
HCT-116 [10] = test: Downregulation of Bcl-2 level in human HCT-116 cells at 200 to 400 nM incubated for 48 hrs by Western blot analysis; type: functional, cell-based; settings: dose 200-400 nM
HCT-116 [11] = test: Induction of apoptosis in human HCT-116 cells assessed as increase in apoptotic cells by measuring red fluorescence by TUNEL staining based fluorescence microscopic analysis; type: functional, cell-based; settings: dose 50-400 nM
HCT-116 [12] = test: Inhibition of wild type p53/MDM2 protein-protein interaction in human HCT-116 cells at 200 nM incubated for 48 hrs by co-immunoprecipitation (Co-IP) analysis; type: cell-based
HCT-116 [13] = test: Effect on RNA polymerase II expression in human HCT-116 cells at 100 to 400 nM incubated for 48 hrs by Western blot analysis; type: functional, cell-based; settings: dose 100-400 nM
[14] = MRT (infinity) in Sprague-Dawley rat at 30 mg/kg, po measured after 24 hrs by LC-MS/MS analysis; type: ADME, organism-based; settings: in vivo
HepG2 = test: Cytotoxicity against human HepG2 cells assessed as cell viability incubated for 48 hrs by CCK8 assay; type: functional, cell-based
HCT-116 [15] = test: Antitumor activity against human HCT-116 cells xenografted in female BALB/c nu-nu mouse assessed as downregulation of Bcl-2 mRNA expression at 40 mg/kg, po incubated for 48 hrs by qRT-PCR analysis; type: functional, organism-based
HCT-116 [16] = test: Induction of cell senescence in human HCT-116 cells at 100 to 400 nM incubated for 48 hrs by beta-galactosidase staining based analysis; type: functional; settings: dose 100-400 nM
[17] = Half life in Sprague-Dawley rat at 30 mg/kg, po measured after 24 hrs by LC-MS/MS analysis; type: ADME, organism-based; settings: in vivo
HCT-116 [18] = test: Downregulation of Mcl-1 level in human HCT-116 cells at 200 to 400 nM incubated for 48 hrs by Western blot analysis; type: functional, cell-based; settings: dose 200-400 nM
Mus musculus = test: In vivo inhibition of CDK9/cyclinT1 in female BALB/c nu-nu mouse xenografted with human HCT-116 cells assessed as inhibition of phosphorylation of RNA polymerase II at Ser 2 residue at 40 mg/kg, po incubated for 48 hrs by Western blot analysis; type: functional, organism-based

CDK1/Cyclin A, sequence (P06493 whole entry): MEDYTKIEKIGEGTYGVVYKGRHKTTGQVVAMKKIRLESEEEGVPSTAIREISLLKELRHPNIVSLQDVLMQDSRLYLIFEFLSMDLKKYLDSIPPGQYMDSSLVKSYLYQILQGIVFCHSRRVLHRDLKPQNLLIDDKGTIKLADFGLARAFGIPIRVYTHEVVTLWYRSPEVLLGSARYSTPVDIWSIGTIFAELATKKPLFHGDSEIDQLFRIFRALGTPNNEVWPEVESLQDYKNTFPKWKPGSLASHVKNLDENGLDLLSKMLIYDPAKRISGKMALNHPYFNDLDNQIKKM
CDK1/Cyclin A, sequence (P20248 whole entry, further chain): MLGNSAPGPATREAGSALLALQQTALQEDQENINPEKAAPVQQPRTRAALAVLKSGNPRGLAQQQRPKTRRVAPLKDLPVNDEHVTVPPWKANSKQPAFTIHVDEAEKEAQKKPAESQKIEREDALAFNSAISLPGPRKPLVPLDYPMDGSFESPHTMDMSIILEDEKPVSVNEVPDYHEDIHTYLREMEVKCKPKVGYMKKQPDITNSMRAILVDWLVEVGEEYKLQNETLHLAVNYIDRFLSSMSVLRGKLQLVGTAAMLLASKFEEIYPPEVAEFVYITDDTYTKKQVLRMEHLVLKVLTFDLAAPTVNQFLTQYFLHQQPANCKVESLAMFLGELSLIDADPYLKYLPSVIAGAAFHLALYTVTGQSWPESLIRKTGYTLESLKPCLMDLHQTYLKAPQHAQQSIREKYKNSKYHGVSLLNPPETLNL

For CC(C)Oc1cc(F)ccc1-c1ccnc(NC(=O)Nc2cccc(C(=O)N3CCN(C)CC3)c2)c1, the Activity (HCT-116 [1]) was “Active”, the AUC(0-t) at 24 h [2] was 403 ng·h/mL and the AUC(0-inf) [3] was 407 ng·h/mL. The Activity (HCT-116 [4]) was “Active”, the fraction unbound at 2 h, 100 µM [5] was 0.006 and the Vd [6] was 1.65 L/kg. For the same compound, the Activity [7] was “Non-toxic”, the IC50 (CDK1/Cyclin A) was 3.87 µM and the Tmax [8] was 30 min. The AUC(0-t) at 24 h [9] was 1610 ng·h/mL, the Activity (HCT-116 [10]) was “Active” and the Activity (HCT-116 [11]) was “Dose-dependent-effect”. The inhibition (HCT-116 [12]) was “Active”, the Activity (HCT-116 [13]) was “inactive” and the MRT inf [14] was 87 min. The Activity (HepG2) was “Active”, the Activity (HCT-116 [15]) was “Active” and the Activity (HCT-116 [16]) was “Active”. For the same compound, the half-life [17] was 47 min, the Activity (HCT-116 [18]) was “Active” and the inhibition (Mus musculus) was “Active”.
